pIC50: −log10 of the molar value.
Tested on: Lox-IMVI melanoma cell line
Experiment: Lox-IMVI anti-proliferative assay (growth inhibition, Cell Titer-Glo)
Assay type: cell-based, human
Details: Homo sapiens; IC50 activity level in the cell-based Lox-IMVI anti-proliferative assay; read-out: Activity
In short: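 IC50 values reflect the concentration giving 50% of DMSO-control luminescence after 72 h of treatment, fitted with a four-parameter logistic model. Cells were cultured in RPMI + 10% FBS with compound from 0.5 nM to 10 μM.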

| SMILES | pIC50 |
| --- | --- |
| NC(=O)[C@H]1CC[C@@H](n2c(Nc3c(F)cc(Cl)cc3F)nc3cnc(NC4CCCC4)nc32)CC1 [Example 120, (1s,4s)-4-(8-(4-chloro-2,6-difluorophenylamino)-2-(cyclopentylamino)-9H-purin-9-yl)cyclohexanecarboxamide] | 6.30 to 6.60 |
| NC(=O)[C@H]1CC[C@@H](n2c(Nc3c(F)cc(Cl)cc3Cl)nc3cnc(NC4CCCC4)nc32)CC1 [Example 122, (1s,4s)-4-(2-(cyclopentylamino)-8-(2,4-dichloro-6-fluorophenylamino)-9H-purin-9-yl)cyclohexanecarboxamide] | 6.30 to 6.60 |
| CC(C)(C)OC(=O)N1CC[C@H](Nc2ncc3nc(Nc4c(F)cc(F)cc4F)n([C@H]4CC[C@@H](C(N)=O)CC4)c3n2)[C@H](F)C1 [Example 127, (3R,4S)-tert-butyl 4-(9-((1s,4R)-4-carbamoylcyclohexyl)-8-(2,4,6-trifluorophenylamino)-9H-purin-2-ylamino)-3-fluoropiperidine-1-carboxylate] | < 6.00 |
| CC(C)(C)OC(=O)N1CC[C@H](Nc2ncc3nc(Nc4c(F)cccc4F)n([C@H]4CC[C@@H](C(N)=O)CC4)c3n2)[C@H](F)C1 [Example 128, (3R,4S)-tert-butyl 4-(9-((1s,4R)-4-carbamoylcyclohexyl)-8-(2,6-difluorophenylamino)-9H-purin-2-ylamino)-3-fluoropiperidine-1-carboxylate] | < 6.00 |
| NC(=O)[C@H]1CC[C@@H](n2c(Nc3c(F)cc(Cl)cc3F)nc3cnc(NC4CCC4)nc32)CC1 [Example 129, (1s,4s)-4-(8-(4-chloro-2,6-difluorophenylamino)-2-(cyclobutylamino)-9H-purin-9-yl)cyclohexanecarboxamide] | < 6.00 |
| NC(=O)[C@H]1CC[C@@H](n2c(Nc3c(F)cc(Cl)cc3Cl)nc3cnc(NC4CCC4)nc32)CC1 [Example 130, (1s,4s)-4-(2-(cyclobutylamino)-8-(2,4-dichloro-6-fluorophenylamino)-9H-purin-9-yl)cyclohexanecarboxamide] | < 6.00 |
| C[C@H](CO)Nc1ncc2nc(Nc3c(F)cc(Cl)cc3F)n([C@H]3CC[C@@H](C(N)=O)CC3)c2n1 [Example 132, (1S,4s)-4-(8-(4-chloro-2,6-difluorophenylamino)-2-((R)-1-hydroxypropan-2-ylamino)-9H-purin-9-yl)cyclohexanecarboxamide] | < 6.00 |
| NC(=O)[C@H]1CC[C@@H](n2c(Nc3c(Cl)cc(Cl)cc3Cl)nc3cnc(N[C@H]4CCNC[C@H]4F)nc32)CC1 [Example 138, (1R,4s)-4-(2-((3R,4S)-3-fluoropiperidin-4-ylamino)-8-(2,4,6-trichlorophenylamino)-9H-purin-9-yl)cyclohexanecarboxamide] | < 6.00 |
| NC(=O)[C@H]1CC[C@@H](n2c(Nc3cccc(F)c3F)nc3cnc(NC4CCCC4)nc32)CC1 [Example 139, (1s,4s)-4-(2-(cyclopentylamino)-8-(2,3-difluorophenylamino)-9H-purin-9-yl)cyclohexanecarboxamide] | < 6.00 |
| NC(=O)[C@H]1CC[C@@H](n2c(Nc3cccc(Cl)c3F)nc3cnc(NC4CCCC4)nc32)CC1 [Example 140, (1s,4s)-4-(8-(3-chloro-2-fluorophenylamino)-2-(cyclopentylamino)-9H-purin-9-yl)cyclohexanecarboxamide] | < 6.00 |
| NC(=O)[C@H]1CC[C@@H](n2c(Nc3c(F)ccc(F)c3F)nc3cnc(NC4CCCC4)nc32)CC1 [Example 141, (1s,4s)-4-(2-(cyclopentylamino)-8-(2,3,6-trifluorophenylamino)-9H-purin-9-yl)cyclohexanecarboxamide] | 6.00 to 6.30 |
| CC[C@@H](CO)Nc1ncc2nc(Nc3c(F)cc(F)cc3F)n([C@H]3CC[C@@H](C(N)=O)CC3)c2n1 [Example 143, (1R,4s)-4-(2-((S)-1-hydroxybutan-2-ylamino)-8-(2,4,6-trifluorophenylamino)-9H-purin-9-yl)cyclohexanecarboxamide] | < 6.00 |
| CC[C@@H](CO)Nc1ncc2nc(Nc3c(F)cccc3Cl)n([C@H]3CC[C@@H](C(N)=O)CC3)c2n1 [Example 144, (1R,4s)-4-(8-(2-chloro-6-fluorophenylamino)-2-((S)-1-hydroxybutan-2-ylamino)-9H-purin-9-yl)cyclohexanecarboxamide] | < 6.00 |
| CC[C@@H](CO)Nc1ncc2nc(Nc3c(F)cc(Cl)cc3F)n([C@H]3CC[C@@H](C(N)=O)CC3)c2n1 [Example 146, (1R,4s)-4-(8-(4-chloro-2,6-difluorophenylamino)-2-((S)-1-hydroxybutan-2-ylamino)-9H-purin-9-yl)cyclohexanecarboxamide] | 6.00 to 6.30 |
| CC[C@@H](CO)Nc1ncc2nc(Nc3c(F)ccc(F)c3F)n([C@H]3CC[C@@H](C(N)=O)CC3)c2n1 [Example 148, (1R,4s)-4-(2-((S)-1-hydroxybutan-2-ylamino)-8-(2,3,6-trifluorophenylamino)-9H-purin-9-yl)cyclohexanecarboxamide] | < 6.00 |
| CC[C@@H](CO)Nc1ncc2nc(Nc3ccc(Cl)cc3Cl)n([C@H]3CC[C@@H](C(N)=O)CC3)c2n1 [Example 149, (1R,4s)-4-(8-(2,4-dichlorophenylamino)-2-((S)-1-hydroxybutan-2-ylamino)-9H-purin-9-yl)cyclohexanecarboxamide] | < 6.00 |

Next, values leading:

| pIC50 | SMILES |
| --- | --- |
| 6.00 to 6.30 | NC(=O)[C@H]1CC[C@@H](n2c(Nc3c(Cl)cc(F)cc3Cl)nc3cnc(NC4CCCC4)nc32)CC1 [Example 121, (1s,4s)-4-(2-(cyclopentylamino)-8-(2,6-dichloro-4-fluorophenylamino)-9H-purin-9-yl)cyclohexanecarboxamide] |
| 6.00 to 6.30 | CC(C)Nc1ncc2nc(Nc3c(Cl)cc(F)cc3Cl)n([C@H]3CC[C@@H](C(N)=O)CC3)c2n1 [Example 123, (1s,4s)-4-(8-(2,6-dichloro-4-fluorophenylamino)-2-(isopropylamino)-9H-purin-9-yl)cyclohexanecarboxamide] |
| < 6.00 | CC(C)Nc1ncc2nc(Nc3c(F)cc(Cl)cc3F)n([C@H]3CC[C@@H](C(N)=O)CC3)c2n1 [Example 124, (1s,4s)-4-(8-(4-chloro-2,6-difluorophenylamino)-2-(isopropylamino)-9H-purin-9-yl)cyclohexanecarboxamide] |
| 6.00 to 6.30 | CC(C)Nc1ncc2nc(Nc3c(F)cc(F)cc3Cl)n([C@H]3CC[C@@H](C(N)=O)CC3)c2n1 [Example 125, (1s,4s)-4-(8-(2-chloro-4,6-difluorophenylamino)-2-(isopropylamino)-9H-purin-9-yl)cyclohexanecarboxamide] |
| < 6.00 | CC[C@H](CO)Nc1ncc2nc(Nc3c(Cl)cc(F)cc3Cl)n([C@H]3CC[C@@H](C(N)=O)CC3)c2n1 [Example 126, (1S,4s)-4-(8-(2,6-dichloro-4-fluorophenylamino)-2-((R)-1-hydroxybutan-2-ylamino)-9H-purin-9-yl)cyclohexanecarboxamide] |
| < 6.00 | C[C@H](CO)Nc1ncc2nc(Nc3c(Cl)cc(F)cc3Cl)n([C@H]3CC[C@@H](C(N)=O)CC3)c2n1 [Example 131, (1S,4s)-4-(8-(2,6-dichloro-4-fluorophenylamino)-2-((R)-1-hydroxypropan-2-ylamino)-9H-purin-9-yl)cyclohexanecarboxamide] |
| 6.00 to 6.30 | C[C@H](CO)Nc1ncc2nc(Nc3c(F)cc(Cl)cc3Cl)n([C@H]3CC[C@@H](C(N)=O)CC3)c2n1 [Example 133, (1S,4s)-4-(8-(2,4-dichloro-6-nuorophenylamino)-2-((R)-1-hydroxypropan-2-ylamino)-9H-purin-9-yl)cyclohexanecarboxamide] |
| < 6.00 | C[C@H](CO)Nc1ncc2nc(Nc3c(F)cc(F)cc3Cl)n([C@H]3CC[C@@H](C(N)=O)CC3)c2n1 [Example 134, (1S,4s)-4-(8-(2-chloro-4,6-difluorophenylamino)-2-((R)-1-hydroxypropan-2-ylamino)-9H-purin-9-yl)cyclohexanecarboxamide] |
| > 6.60 | C[C@@H](CO)Nc1ncc2nc(Nc3c(F)cc(Cl)cc3Cl)n([C@H]3CC[C@@H](C(N)=O)CC3)c2n1 [Example 135, (1R,4s)-4-(8-(2,4-dichloro-6-fluorophenylamino)-2-((S)-1-hydroxypropan-2-ylamino)-9H-purin-9-yl)cyclohexanecarboxamide] |
| 6.00 to 6.30 | C[C@@H](CO)Nc1ncc2nc(Nc3c(F)cc(F)cc3Cl)n([C@H]3CC[C@@H](C(N)=O)CC3)c2n1 [Example 136, (1R,4s)-4-(8-(2-chloro-4,6-difluorophenylamino)-2-((S)-1-hydroxypropan-2-ylamino)-9H-purin-9-yl)cyclohexanecarboxamide] |
| < 6.00 | CC[C@H](CO)Nc1ncc2nc(Nc3c(Cl)cc(Cl)cc3Cl)n([C@H]3CC[C@@H](C(N)=O)CC3)c2n1 [Example 137, (1S,4s)-4-(2-((R)-1-hydroxybutan-2-ylamino)-8-(2,4,6-trichlorophenylamino)-9H-purin-9-yl)cyclohexanecarboxamide] |
| < 6.00 | COC[C@H](C)Nc1ncc2nc(Nc3c(Cl)cc(Cl)cc3Cl)n([C@H]3CC[C@@H](C(N)=O)CC3)c2n1 [Example 142, (1R,4s)-4-(2-((S)-1-methoxypropan-2-ylamino)-8-(2,4,6-trichlorophenylamino)-9H-purin-9-yl)cyclohexanecarboxamide] |
| < 6.00 | CC[C@@H](CO)Nc1ncc2nc(Nc3c(Cl)cc(F)cc3Cl)n([C@H]3CC[C@@H](C(N)=O)CC3)c2n1 [Example 145, (1R,4s)-4-(8-(2,6-dichloro-4-fluorophenylamino)-2-((S)-1-hydroxybutan-2-ylamino)-9H-purin-9-yl)cyclohexanecarboxamide] |
| < 6.00 | CC[C@@H](CO)Nc1ncc2nc(Nc3c(F)cc(F)cc3Cl)n([C@H]3CC[C@@H](C(N)=O)CC3)c2n1 [Example 147, (1R,4s)-4-(8-(2-chloro-4,6-difluorophenylamino)-2-((S)-1-hydroxybutan-2-ylamino)-9H-purin-9-yl)cyclohexanecarboxamide] |

— patent US11590139B2, “Substituted aminopurine compounds, compositions thereof, and methods of treatment therewith” (Signal Pharmaceuticals, LLC, priority 2014, dated 2023)
